Mortality data for 3 compounds are collected here from patent US20190161499A1, “PESTICIDALLY ACTIVE 1,2,4-TRIAZOLE DERIVATIVES” (SYNGENTA PARTICIPATIONS AG, priority 2015, published 2019).

Holding throughout (format): in vivo
The test system of assay [1] is Plutella xylostella (Diamond Back Moth). Put plainly: Comparison: insecticidal activity against Plutella xylostella. The settings on record: 120 h, 5 days after infestation. How it is done:
(§1) Compound B is disclosed in WO2013/063282 as an example on page 114 (Table 4, M is CH(Me), Rx=2-F, Ry=4-Cl) and compound C is disclosed in WO 2013/173218 as example on page 123 (Table 14, M is CH(Me), R4a=2-F, R4b=4-Cl). The activities of compounds B and C to treat different pests are compared with the activities of compound A according to the present invention. The tests are carried out at different concentrations (ppm).
b) Insecticidal Activity Against Plutella xylostella (Diamond Back Moth):
24-well microtiter plates with artificial diet were treated with aqueous test solutions prepared from 10,000 ppm DMSO stock solutions by pipetting. After drying, the plates were infested with L2 larvae (10 to 15 per well). The samples were assessed for mortality and growth inhibition in comparison to untreated samples 5 days after infestation.

Assay [2] relates to Diabrotica Balteata (Corn Root Worm). Description: Comparison: insecticidal activity against Diabrotica balteata. The settings on record: 96 h, 4 days after infestation. The method, then: as §1
c) Insecticidal Activity Against Diabrotica Balteata (Corn Root Worm):
Maize sprouts, placed on an agar layer in 24-well microtiter plates were treated with aqueous test solutions prepared from 10,000 ppm DMSO stock solutions by spraying. After drying, the plates were infested with L2 larvae (6 to 10 per well). The samples were assessed for mortality and growth inhibition in comparison to untreated samples 4 days after infestation.

Assay [3] has as its system Spodoptera littoralis (Egyptian Cotton Leaf Worm). Description: Comparison: insecticidal activity against Spodoptera littoralis. Conditions: 72 h, 3 days after infestation. How it is done: as §1
a) Insecticidal Activity Against Spodoptera littoralis (Egyptian Cotton Leaf Worm)
Cotton leaf discs were placed onto agar in 24-well microtiter plates and sprayed with aqueous test solutions prepared from 10,000 ppm DMSO stock solutions. After drying the leaf discs were infested with five L1 larvae. The samples were assessed for mortality 3 days after infestation.

One may read the mortality as the share of the test organisms that died. The low end stands for more survivors, the high end for fewer survivors. As for `CC1CCN(Cc2nc(-c3ccc(Cl)cc3)nn2-c2ccccc2F)CC1` [A], in assay [1], the mortality at 12.5 ppm was determined as 50%, the mortality at 50 ppm stood at 100% and the mortality at 200 ppm came out at 100%. In assay [2], the mortality at 12.5 ppm is 100%, the mortality at 50 ppm was 100% and the mortality at 200 ppm turned out to be 100%. In assay [3], the mortality at 12.5 ppm came to 100%, the mortality at 50 ppm was found to be 100% and the mortality at 200 ppm came out at 100%.
For the compound `CC1CCN(Cc2cn(-c3ccc(Cl)cc3)nc2-c2ccccc2F)CC1` [Compound B], in assay [1], the mortality at 12.5 ppm was determined as 0%, the mortality at 50 ppm is 0% and the mortality at 200 ppm turned out to be 0%. In assay [2], this compound yielded a mortality at 12.5 ppm of 0%, a mortality at 50 ppm of 100% and a mortality at 200 ppm of 100%. Also, in assay [3], the mortality at 12.5 ppm came to 0%, the mortality at 50 ppm is 0% and the mortality at 200 ppm is 100%.
Turning to `CC1CCN(Cc2nn(-c3ccc(Cl)cc3)nc2-c2ccccc2F)CC1` [Compound C], in assay [1], the mortality at 12.5 ppm came to 0%, the mortality at 50 ppm came out at 0% and the mortality at 200 ppm worked out at 0%. In assay [2], this compound displayed a mortality at 12.5 ppm of 0%, a mortality at 50 ppm of 100% and a mortality at 200 ppm of 100%. In assay [3], the mortality at 12.5 ppm came to 0%, the mortality at 50 ppm came out at 0% and the mortality at 200 ppm was determined as 50%.
